Data from ChEMBL document CHEMBL5357036, “Latest developments in coumarin-based anticancer agents: mechanism of action and structure-activity relationship studies” (RSC Med Chem, 2024).
Values after ≈ are worked out from the molar mass of the structure shown. Values belong to the compound of their own block, whether it stands above or below them.

What was measured:
[1] = molecular target: ALK tyrosine kinase receptor (Homo sapiens, UniProt Q9UM73, L1196M); test: Inhibition of ALK L1196M mutant (unknown origin)
ALK tyrosine kinase receptor (Homo sapiens, UniProt Q9UM73, L1196M), sequence (Q9UM73 19-1620 L1196M limits assumed): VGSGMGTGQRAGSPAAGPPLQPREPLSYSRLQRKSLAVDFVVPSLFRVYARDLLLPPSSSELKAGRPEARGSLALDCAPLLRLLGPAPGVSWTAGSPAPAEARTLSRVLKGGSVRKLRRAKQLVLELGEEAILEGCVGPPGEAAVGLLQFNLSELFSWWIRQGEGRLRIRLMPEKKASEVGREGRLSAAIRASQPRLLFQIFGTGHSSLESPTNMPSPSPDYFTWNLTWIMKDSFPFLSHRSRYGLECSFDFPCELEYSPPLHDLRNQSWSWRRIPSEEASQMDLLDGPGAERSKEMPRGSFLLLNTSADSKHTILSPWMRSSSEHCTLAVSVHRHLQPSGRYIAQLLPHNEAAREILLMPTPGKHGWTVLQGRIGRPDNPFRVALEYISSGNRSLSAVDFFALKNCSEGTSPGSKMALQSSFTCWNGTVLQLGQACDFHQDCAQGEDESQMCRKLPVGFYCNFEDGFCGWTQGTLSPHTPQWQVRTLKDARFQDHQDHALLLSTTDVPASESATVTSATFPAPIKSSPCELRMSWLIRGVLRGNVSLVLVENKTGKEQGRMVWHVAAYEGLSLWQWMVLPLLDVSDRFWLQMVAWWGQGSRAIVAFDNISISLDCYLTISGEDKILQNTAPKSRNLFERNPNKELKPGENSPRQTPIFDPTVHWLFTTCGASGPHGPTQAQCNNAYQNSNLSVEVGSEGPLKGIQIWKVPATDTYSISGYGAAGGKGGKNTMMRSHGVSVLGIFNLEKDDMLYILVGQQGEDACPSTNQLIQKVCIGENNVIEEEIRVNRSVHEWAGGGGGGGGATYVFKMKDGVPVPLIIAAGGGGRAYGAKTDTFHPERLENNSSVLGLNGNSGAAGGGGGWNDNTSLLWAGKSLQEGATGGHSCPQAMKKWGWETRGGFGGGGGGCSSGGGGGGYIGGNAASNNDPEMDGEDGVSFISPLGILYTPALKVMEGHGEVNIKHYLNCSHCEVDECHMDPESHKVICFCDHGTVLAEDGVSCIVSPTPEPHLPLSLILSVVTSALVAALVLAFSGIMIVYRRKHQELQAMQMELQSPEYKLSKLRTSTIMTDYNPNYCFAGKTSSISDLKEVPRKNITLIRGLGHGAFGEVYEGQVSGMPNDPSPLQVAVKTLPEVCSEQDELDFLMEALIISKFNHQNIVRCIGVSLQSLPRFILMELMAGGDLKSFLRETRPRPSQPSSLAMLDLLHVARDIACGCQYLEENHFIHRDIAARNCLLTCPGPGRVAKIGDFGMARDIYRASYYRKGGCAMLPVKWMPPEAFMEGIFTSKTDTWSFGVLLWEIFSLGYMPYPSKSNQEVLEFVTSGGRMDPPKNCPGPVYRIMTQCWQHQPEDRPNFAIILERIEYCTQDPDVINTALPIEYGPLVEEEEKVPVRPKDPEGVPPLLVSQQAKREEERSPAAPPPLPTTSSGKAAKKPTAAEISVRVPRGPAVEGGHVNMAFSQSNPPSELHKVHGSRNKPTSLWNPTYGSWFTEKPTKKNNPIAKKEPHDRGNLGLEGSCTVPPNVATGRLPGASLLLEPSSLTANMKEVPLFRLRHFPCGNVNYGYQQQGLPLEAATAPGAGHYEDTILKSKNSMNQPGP

[2] = molecular target: ALK tyrosine kinase receptor (Homo sapiens, UniProt Q9UM73, G1269A); test: Inhibition of ALK G1269A mutant (unknown origin)
ALK tyrosine kinase receptor (Homo sapiens, UniProt Q9UM73, G1269A), sequence (Q9UM73 19-1620 G1269A limits assumed): as the sequence (Q9UM73 19-1620 L1196M limits assumed) above, with M1178L, G1251A counted along it

[3] = molecular target: ALK tyrosine kinase receptor (Homo sapiens, UniProt Q9UM73, G1202R); test: Inhibition of ALK G1202R mutant (unknown origin)
ALK tyrosine kinase receptor (Homo sapiens, UniProt Q9UM73, G1202R), sequence (Q9UM73 19-1620 G1202R limits assumed): as the sequence (Q9UM73 19-1620 L1196M limits assumed) above, with M1178L, G1184R counted along it

MCF7 [4] = test: Anticancer activity against human MCF7 cells assessed as reduction in cell viability by MTT assay; assay type: functional, cell-based
HCT-116 [5] = test: Anticancer activity against human HCT-116 cells assessed as reduction in cell viability by MTT assay; assay type: functional, cell-based
HCT-116 [6] = test: Cytotoxicity against human HCT-116 cells assessed as reduction in cell growth measured after 48 hrs by MTT assay; assay type: functional, cell-based; details: HCT-116, 48 h
MCF7 [7] = test: Cytotoxicity against human MCF7 cells assessed as inhibition of cell growth by resazurin microplate assay; assay type: functional, cell-based
HepG2 [8] = test: Anticancer activity against human HepG2 cells assessed as reduction in cell viability by MTT assay; assay type: functional, cell-based
DU-145 [9] = test: Anticancer activity against human DU-145 cells assessed as cell growth inhibition by MTT assay; assay type: functional, cell-based
HepG2 [10] = test: Antiproliferative activity against human HepG2 cells assessed as reduction in cell viability incubated for 72 hrs by MTT assay; assay type: functional, cell-based; details: HepG2, 72 h
Vero = test: Cytotoxicity against African green monkey Vero cells incubated for 24 hrs by CellTiter-Glo assay; assay type: toxicity, cell-based, Chlorocebus sabaeus
HeLa [11] = test: Growth inhibition of human HeLa cells incubated for 48 hrs by MTT assay; assay type: functional
HeLa [12] = test: Anticancer activity against human HeLa cells assessed as reduction in cell viability measured after 72 hrs by MTT assay; assay type: functional, cell-based
MCF7 [13] = test: Anticancer activity against human MCF7 cells assessed as reduction in cell viability measured after 72 hrs by MTT assay; assay type: functional, cell-based; details: MCF7, 72 h
DU-145 [14] = test: Anticancer activity against human DU-145 cells assessed as cell growth inhibition measured after 48 hrs by MTT assay; assay type: functional, cell-based; details: DU-145, 48 h
B16-F10 = test: Cytotoxicity against mouse B16F10 cells assessed as reduction in cell viability incubated for 48 hrs by MTT assay; assay type: functional, cell-based; details: B16-F10, 48 h
C6 = test: Antiproliferative activity against rat C6 cells assessed as inhibition of cell growth; assay type: functional, cell-based
MDA-MB-231 [15] = test: Cytotoxicity against human MDA-MB-231 cells assessed as cell growth inhibition by SRB assay; assay type: functional, cell-based
MCF7 [16] = test: Cytotoxicity against human MCF7 cells assessed as cell growth inhibition by SRB assay; assay type: functional, cell-based
HeLa [17] = test: Cytotoxicity against human HeLa cells assessed as growth inhibition measured after 48 hrs by MTT assay; assay type: functional, cell-based
HepG2 [18] = test: Antiproliferative activity against human HepG2 cells assessed as reduction in cell viability measured after 48 hrs by MTT assay; assay type: functional, cell-based; details: HepG2, 48 h
MCF7 [19] = test: Antiproliferative activity against human MCF7 cells assessed as reduction in cell viability measured after 48 hrs by MTT assay; assay type: functional, cell-based; details: MCF7, 48 h
HepG2 [20] = test: Cytotoxicity against human HepG2 cells assessed as growth inhibition measured after 48 hrs by MTT assay; assay type: functional, cell-based; details: HepG2, 48 h
MDA-MB-231 [21] = test: Antiproliferative activity against human MDA-MB-231 cells assessed as cell growth inhibition measured after 48 hrs by MTT assay; assay type: functional, cell-based; details: MDA-MB-231, 48 h
MCF7 [22] = test: Cytotoxicity against human MCF7 cells assessed as reduction in cell viability incubated for 48 hrs by MTT assay; assay type: functional, cell-based; details: MCF7, 48 h
HepG2 [23] = test: Anticancer activity against human HepG2 cells assessed as reduction in cell viability measured after 72 hrs by MTT assay; assay type: functional, cell-based; details: HepG2, 72 h
A549 = test: Antiproliferative activity against human A549 cells assessed as reduction in cell viability measured after 24 hrs by MTT assay; assay type: functional, cell-based; details: A549, 24 h

SMILES: COc1ccc2nc(-c3cc4ccc(N5CCOCC5)cc4oc3=O)sc2c1
- IC50 [1]: 0.27 µM
- IC50 [2]: 0.3 µM
- IC50 [3]: 0.59 µM

SMILES: COc1ccc(-c2cc(-c3cc4ccccc4oc3=O)nc(N)c2C#N)cc1
- IC50 (HCT-116 [6]): 9.9 µM
- IC50 (MCF7 [7]): 14.1 µM

SMILES: COc1ccc(C(=O)Nc2nnc(SCC(=O)Nc3ccc4oc(=O)ccc4c3)s2)cc1
- IC50 (HepG2 [8]): 24.9 µg/mL (≈ 53.1 µM)

SMILES: CC(C)(C)c1cc(C(C)(C)C)c2oc(=O)c(-c3csc(-n4nc(-c5ccccc5)cc4N)n3)cc2c1
- IC50 (DU-145 [9]): 7 µM

SMILES: Cc1cn(Cc2cc(=O)oc3ccc(Cl)cc23)c(=O)n(Cc2cc(=O)oc3ccc(Cl)cc23)c1=O
- IC50 (C6): 4.85 µM

SMILES: Cc1c(-c2csc(N)n2)c(=O)oc2cc(OC(C)(C)C(=O)O)ccc12
- IC50 (MDA-MB-231 [15]): 4.84 µM
- IC50 (MCF7 [16]): 2.39 µM

SMILES: CCCCOc1ccc2cc(C(=O)NNC(=O)c3c(C)oc4nc(NCCC)n(-c5ccc(C)cc5)c(=O)c34)c(=O)oc2c1
- IC50 (HeLa [17]): 6.47 µM

SMILES: N#Cc1c(NN)nc(SCc2cc(=O)oc3ccccc23)nc1-c1ccccc1
- IC50 (HepG2 [18]): 5.5 µM
- IC50 (MCF7 [19]): 6.9 µg/mL (≈ 17.2 µM)

SMILES: CCCCOc1ccc2cc(C(=O)NNC(=O)c3c(C)oc4nc(N(CCC)CCC)n(-c5ccc(C)cc5)c(=O)c34)c(=O)oc2c1
- IC50 (HepG2 [20]): 4.87 µM

SMILES: O=c1oc2ccccc2c2c1nc(-c1ccccn1)c1occc12
- IC50 (MCF7 [22]): 8 µM

More lines, main results first:

- IC50 (MCF7 [4]): 54.9 µg/mL (≈ 125 µM)
- IC50 (HCT-116 [5]): 30.7 µg/mL (≈ 70 µM)
SMILES: O=C(CSc1nnc(NC(=O)c2ccccc2)s1)Nc1ccc2oc(=O)ccc2c1

- IC50 (HepG2 [10]): 12.8 µM
SMILES: O=c1cc(OCc2cc(-c3cc4c(cc3Cl)OCO4)no2)c2cc(Cl)ccc2o1
- IC50 (Vero): 144 µM

- GI50 (HeLa [11]): 23.4 µg/mL (≈ 67.5 µM)
SMILES: O=c1cc(-c2nccc3c2[nH]c2ccccc23)c2cc(Cl)ccc2o1

- IC50 (HeLa [12]): 0.88 µM
- IC50 (MCF7 [13]): 0.61 µM
SMILES: O=C(NCCOCc1no[n+]([O-])c1S(=O)(=O)c1ccccc1)c1cc2ccccc2oc1=O

- IC50 (DU-145 [14]): 20.9 µM
SMILES: O=c1oc2ccccc2c2c1nc(-c1ccc(C(F)(F)F)cc1)c1occc12
- IC50 (B16-F10): 13 µM

- IC50 (MDA-MB-231 [21]): 8.03 µM
SMILES: COc1ccc2nc3ccccc3c(Nc3csc(-c4cc5ccccc5oc4=O)n3)c2c1

- IC50 (HepG2 [23]): 3.86 µM
SMILES: O=C(OCCCOc1no[n+]([O-])c1S(=O)(=O)c1ccccc1)c1cc2ccccc2oc1=O

- IC50 (A549): 0.28 µM
SMILES: O=C(/C(Cl)=N/Nc1ccc([N+](=O)[O-])cc1)n1c(-c2cc3ccccc3oc2=O)nc2ccccc21
